Test results as given in publication PMC4122966, “Novel VCP modulators mitigate major pathologies of rd10, a mouse model of retinitis pigmentosa” (Scientific Reports, 2014).

Key:
rd10 mice = assay: rd10 mouse model of retinitis pigmentosa (SD-OCT, electroretinogram, histology, electron microscopy, western blot); assay type: in vivo; conditions: 21-day-old, 50 mg/kg daily i.p. from day 7, vs control
Experimental: Starting 7 days after birth, KUS121 or KUS187 was administered daily (50 mg/kg) by intraperitoneal injection. […] To test the visual function of the mice, dark-adapted electroretinograms were recorded. The amplitude of the a-wave, which represents visual function of photoreceptors, was smaller in the control mice than in the KUS-treated mice (Supplementary Fig. 5b and c). The peak latency of the a-wave, which negatively correlates with visual function of photoreceptors, was delayed in the control mice as compared with the KUS-treated mice (Supplementary Fig. 5d). At age 25 days, the thinning of the outer nuclear layer (ONL) was clearly observed in the control mice (Fig. 5a). The outer nuclear layer and the junction line between the inner segment and outer segment (arrow heads in Fig. 5a), which is generally considered to be positively associated with visual function, were clearly detected in the KUS-treated but not in control mice. […] At age 29 days, the photoreceptor layer was barely detected in SD-OCT images, and electroretinogram records were almost flat in control mice. […]
Spectral-domain optical coherence tomography (SD-OCT) examinations using Multiline OCT (Heidelberg Engineering, Heidelberg, Germany) were performed[33] in rd10 mice at ages of 21, 25, 29, and 33days. Total retinal thickness (from inner limiting membrane to Bruch membrane) in rd10 mice was measured using volume scan images[33] within a circle 0.366 mm in diameter, the center of which was adjusted to the center of the optic nerve head. […]
Electroretinogram recording was performed to assess the visual function of rd10 mice at ages of 21, 25, 29, and 33 days. […] Electroretinograms were recorded using a gold loop corneal electrode with a light-emitting diode (Mayo Corp., Inazawa, Japan). […] The electroretinogram response signals were amplified, digitized at 10 kHz with a band-pass filter of 0.3 to 500 Hz, and analyzed (PowerLab 2/25; AD instruments, New South Wales, Australia). […]

HeLa cells [1] = assay: protection from cell death in low glucose medium (WST); assay type: cell-based; conditions: low glucose 0.2 g/l, 5, 10, 20, and 50 μM, 41 hours
Experimental: Figure 2 Prevention of cell death and ER stress by KUSs. (a) Photographs of HeLa cells, cultured with DMSO (DMSO) or KUSs (KUS94, KUS121, and KUS187, 20 μM each) for 41 hours in low glucose (0.2 g/l) medium. Scale bar, 100 μm. (b–e) WST (water-soluble tetrazolium salts) values reflecting relative live cell numbers are shown, as optical density (OD) at 450 nm. Error bars indicate SD. (b) WST values of HeLa cells, cultured in low glucose (0.2 g/l) with DMSO (control) or KUSs (50 μM for KUS121; 20 μM for KUS69, KUS94, and KUS187, n = 3) for 41 hours. (c) Cell viability, indicated by WST values of HeLa cells, cultured with tunicamycin (Tm) (0.2 μg/ml) for 41 hours with KUSs (20 μM each, n = 3). […]
HeLa, HEK293, and PC12 cells were cultured in Dulbecco's modified Eagle's medium (DMEM) with 10% fetal bovine serum. […] Viability of cultured cells was measured by formazan production with an ARVO multilabel counter (Wallac), using WST (water soluble tetrazolium salts)-8 reagent (Cell count reagent SF, Nacalai Tesque, Kyoto, Japan). ATP in cultured cells was measured by luciferase activities with an ARVO multilabel counter, using ATP assay reagent for cells (Toyo B-net, Tokyo, Japan). Acetyl-CoA was measured using a PicoProbe Acetyl CoA assay kit (BioVision, CA, USA) with a Spectra Max multilabel counter (Molecular Devices, CA, USA).

HeLa cells [2] = assay: cell death-inducing activity; assay type: cell-based; conditions: 50 μM, 24 hours
Description: Figure 1 Structures and characterization of KUSs, novel VCP modulators. (a) Structures and IC50 values of KUS11, KUS31, KUS69, KUS94, KUS121, and KUS187. […] (b) ATPase activity assays of recombinant human […], comparing KUSs and DBeQ. (c) Immunoblot analysis of ubiquitinated proteins, an ER stress marker (CHOP), and an autophagy indicator (LC3), comparing KUSs and DBeQ. As a control, MG132, a proteasome inhibitor, was used for the analysis. Actin served as a loading control. Complete scans of the different blots are presented in Supplementary Fig. 7. (d) Comparison of KUSs and DBeQ for cell death-inducing activities. HeLa cells were treated with 50 μM DBeQ or KUSs for 24 hours. […]

Cc1cc(F)ccc1-c1ccc(/N=N/c2cc(S(=O)(=O)O)c3ccccc3c2N)cn1 [KUS121]
mean amplitude of the a-wave, dark-adapted electroretinogram (rd10 mice): larger than that in control rd10 mice | dose dependence of protective effect (HeLa cells [1]): dose-dependent | induction of cell death (HeLa cells [2]): did not induce any of these phenotypes
